For orientation: melting point means the temperature of the solid-liquid transition.

The source of these data is PMC10020958, “2-(4-Fluorophenyl)-1H-benzo[d]imidazole as a Promising Template for the Development of Metabolically Robust, α1β2γ2GABA-A Receptor-Positive Allosteric Modulators” (ACS Chemical Neuroscience, 2023).

Data set [1] concerns the target GABA-A receptor (benzodiazepine site, α1/γ2 interface). Briefly: Radioligand binding assay for the GABA-A receptor ([3H]-flunitrazepam displacement, rat brain homogenate). Particulars: pKi = -log Ki, n.a. = no affinity.
Data set [2] concerns the target T1, α1β2γ2-GABA-A receptors stably expressed in HEK293 cells (Homo sapiens, UniProt P14867+P18507).
T1 construct: expressed in transfected cells
Briefly: Electrophysiological studies, automated patch clamp (QPatch16X), positive allosteric modulation of GABA-induced Cl- currents. The data set is classed as cell-based. Particulars: compound 1 μM co-applied with 10 μM GABA; GABA alone = 100%; mean ± SEM. Here is the method: Given that ligands binding within the α1/γ2 interface act as PAMs, we selected the most promising 1H-benzo[d]imidazoles (9, 15, 16, 23, and 29) for electrophysiological studies using automated patch clamp recordings (QPatch16X, Sophion). We expected that 1H-benzo[d]imidazoles would potentiate GABA-induced Cl^– currents rather than inducing ion passage alone.
Electrophysiology studies were performed using the QPatch16X automatic patch clamp platform (Sophion Biosciences) and HEK293 cells, stably expressing the α1β2γ2 subunits of the human GABA-A receptor. Prior to the assay recordings, the cells were transferred from the culture flask through a TrypLE Express solution (LifeTechnologies) and resuspended in serum-free media. The cells were placed in the lidless microtube, located onboard the automated electrophysiology instrument. The cells were then automatically relocated to a built-in centrifuge, spun down, and washed in Ringer’s extracellular solution. The cells were transferred to the pipetting wells of a single-use 16-channel planar patch chip plate (QPlate 16X), and gigaseals were formed upon implementation of a combined suction/voltage protocol. Subsequent suction induced whole-cell configuration. The chloride currents passed via the GABA-A receptor were recorded for 7 s after single addition of a tested molecule. Through whole-cell recording, the holding potential was set to −90 mV. The assay was performed at room temperature. The extracellular solution was composed of the following ingredients: consisted of 2 mM […], 145 mM NaCl, 10 mM HEPES, CaCl2, 1 mM MgCl2, 10 mM glucose (pH 7.4, 300 mOsm), and intracellular solution contained 140 mM CsF, 1 mM EGTA, 5 mM CsOH, 10 mM HEPES, and 20 mMNaCl (pH 7.2, 320 mOsm). The screening assays were established in the instrument software by sequential application of 10 μM GABA (reference agonist AG1), 1 μM examined molecule compounds, and compounds co-administered with 10 μM GABA (T2); second addition of 10 μM GABA (AG2); 10 μM bicuculline (reference antagonist) along with 10 μM GABA (ATG). The intermission among the addition of particular molecules was 60 s. In a typical procedure, 5 μL of ligand was added to the cells, followed by 3 s of washout with an extracellular solution (two times […]). For the allosteric modulator/antagonist mode, the cells were preincubated with the tested compound alone for 50 s, followed by the addition of the reference agonist. The data obtained were processed using QPatch Assay Software (v5.0, Sophion Biosciences) and are represented as the mean of at least three independent experiments performed on separate cells. The validation criteria for a single test were current amplitude evoked by adding GABA greater than 500 pA and a change between cells’ response to GABA applications (AG1 and AG2) not greater than 25%. The relative compound efficiency was analyzed as the baseline-corrected ratio of maximal current amplitudes induced by the addition of tested compounds and reference agonist (T1-ATG/AG1-ATG or T2-ATG/AG1-ATG). The obtained raw current recordings were normalized and represented as % of the current amplitude induced by a reference agonist (GABA = 100%) using the QPatch Assay Software (v5.0, Sophion Biosciences).[24]
(The patch-clamp technique gives a direct electrical read-out from membranes.)

T1 sequence (P14867 28-456): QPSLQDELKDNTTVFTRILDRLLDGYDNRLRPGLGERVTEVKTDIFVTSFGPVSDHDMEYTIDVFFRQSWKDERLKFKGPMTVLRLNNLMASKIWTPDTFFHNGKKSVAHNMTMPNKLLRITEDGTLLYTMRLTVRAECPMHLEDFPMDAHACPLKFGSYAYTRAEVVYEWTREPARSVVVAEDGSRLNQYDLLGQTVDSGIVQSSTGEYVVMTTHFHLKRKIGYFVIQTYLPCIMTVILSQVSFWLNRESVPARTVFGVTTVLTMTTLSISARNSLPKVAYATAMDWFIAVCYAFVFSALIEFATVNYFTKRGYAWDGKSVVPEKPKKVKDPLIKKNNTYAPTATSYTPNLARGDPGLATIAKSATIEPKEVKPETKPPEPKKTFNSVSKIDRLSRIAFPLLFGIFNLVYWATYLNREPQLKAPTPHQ
T1 sequence (P47870 25-512 partner limits assumed): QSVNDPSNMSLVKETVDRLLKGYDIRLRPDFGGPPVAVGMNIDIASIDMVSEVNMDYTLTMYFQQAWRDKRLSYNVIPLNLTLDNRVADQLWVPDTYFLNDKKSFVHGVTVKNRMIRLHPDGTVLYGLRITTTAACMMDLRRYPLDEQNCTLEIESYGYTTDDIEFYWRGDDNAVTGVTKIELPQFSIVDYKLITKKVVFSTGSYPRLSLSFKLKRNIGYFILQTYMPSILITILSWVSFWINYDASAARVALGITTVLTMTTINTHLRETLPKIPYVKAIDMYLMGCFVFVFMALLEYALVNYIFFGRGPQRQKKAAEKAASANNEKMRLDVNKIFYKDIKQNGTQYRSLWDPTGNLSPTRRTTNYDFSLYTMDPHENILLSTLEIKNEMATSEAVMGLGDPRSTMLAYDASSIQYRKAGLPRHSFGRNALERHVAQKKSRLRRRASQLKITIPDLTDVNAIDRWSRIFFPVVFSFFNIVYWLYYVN
T1 sequence (P18507 40-475): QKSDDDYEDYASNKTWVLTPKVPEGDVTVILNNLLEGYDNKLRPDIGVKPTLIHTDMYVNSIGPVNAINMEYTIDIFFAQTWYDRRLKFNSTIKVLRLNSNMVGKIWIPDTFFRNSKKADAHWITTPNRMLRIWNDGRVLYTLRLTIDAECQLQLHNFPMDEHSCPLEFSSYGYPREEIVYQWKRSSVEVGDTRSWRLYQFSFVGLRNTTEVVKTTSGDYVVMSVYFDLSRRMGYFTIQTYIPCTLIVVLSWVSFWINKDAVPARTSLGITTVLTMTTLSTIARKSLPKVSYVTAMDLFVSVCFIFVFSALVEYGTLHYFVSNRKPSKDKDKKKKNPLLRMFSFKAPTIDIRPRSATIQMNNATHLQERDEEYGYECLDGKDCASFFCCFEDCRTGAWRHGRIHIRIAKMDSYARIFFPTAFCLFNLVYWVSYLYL

In the case of `Cc1ccc2c(c1)nc(-c1ccc(F)cc1)n2CC(=O)N1CCCC1` [Compound 10, 2-(2-(4-Fluorophenyl)-5-methyl-1H-benzo[d]imidazole-1-yl)-1-(pyrrolidin-1-yl)ethan-1-one], the melting point was in the range of 208.7 to 210.2 °C. Besides, the “pKi GABA-A” value in data set [1] is listed as “no affinity”.

For `Cc1ccc2nc(-c3ccc(F)cc3)n(CC(=O)N3CCSCC3)c2c1` [Compound 11, 2-(2-(4-Fluorophenyl)-6-methyl-1H-benzo[d]imidazole-1-yl)-1-thiomorpholinoethan-1-one], the melting point was 205.3 to 207.1 °C. Besides, the “pKi GABA-A” value in data set [1] amounted to 5.1.

As for `Cc1ccc2c(c1)nc(-c1ccc(F)cc1)n2CC(=O)N1CCSCC1` [Compound 12, 2-(2-(4-Fluorophenyl)-5-methyl-1H-benzo[d]imidazole-1-yl)-1-thiomorpholinoethan-1-one], the melting point fell in the range of 199 to 200.9 °C. For the same molecule, the “pKi GABA-A” value in data set [1] is reported as “no affinity”.

`Cc1ccc2nc(-c3ccc(F)cc3)n(CC(=O)Nc3ccccc3)c2c1` [Compound 13, 2-(2-(4-Fluorophenyl)-6-methyl-1H-benzo[d]imidazole-1-yl)-N-phenylacetamide] had a melting point of 202.5 to 205 °C. Further, the “pKi GABA-A” value in data set [1] was 5.53.

Regarding `Cc1ccc2c(c1)nc(-c1ccc(F)cc1)n2CC(=O)Nc1ccccc1` [Compound 14, 2-(2-(4-Fluorophenyl)-5-methyl-1H-benzo[d]imidazole-1-yl)-N-phenylacetamide], the melting point was 207.3 to 209.2 °C. In addition, the “pKi GABA-A” value in data set [1] is given as “no affinity”.

The molecule `CN(C)C(=O)Cn1c(-c2ccc(F)cc2)nc2ccccc21` [Compound 15, 2-(2-(4-Fluorophenyl)-1H-benzo[d]imidazole-1-yl)-N,N-dimethylacetamide] showed a melting point of 182.3 to 183.1 °C. Moreover, the “pKi GABA-A” value in data set [1] was 5.39. In addition, in data set [2], the “% of 10 μM GABA response” value was 105 ± 2,5%.

Consider `O=C(Cn1c(-c2ccc(F)cc2)nc2ccccc21)N1CCCC1` [Compound 16, 2-(2-(4-Fluorophenyl)-1H-benzo[d]imidazole-1-yl)-1-(pyrrolidin-1-yl)ethan-1-one], for which the melting point fell in the range of 212.9 to 214 °C. For the same molecule, in data set [1], the “pKi GABA-A” value is 5.53. Besides, the “% of 10 μM GABA response” value in data set [2] is 124 ± 5,2%.

`O=C(Cn1c(-c2ccc(F)cc2)nc2ccccc21)N1CCNCC1` [Compound 17, 2-(2-(4-Fluorophenyl)-1H-benzo[d]imidazole-1-yl)-1-(piperazin-1-yl)ethan-1-one] registered a melting point of 232.8 to 234.1 °C. Also, the “pKi GABA-A” value in data set [1] was “loss of activity”.

The molecule `CN1CCN(C(=O)Cn2c(-c3ccc(F)cc3)nc3ccccc32)CC1` [Compound 18, 2-(2-(4-Fluorophenyl)-1H-benzo[d]imidazole-1-yl)-1-(4-methylpiperazin-1-yl)ethan-1-one] registered a melting point of 172.3 to 173.1 °C.

With `CC1CN(C(=O)Cn2c(-c3ccc(F)cc3)nc3ccccc32)CC(C)N1` (stereo not drawn) [Compound 19, 1-(3,5-Dimethylpiperazin-1-yl)-2-(2-(4-fluorophenyl)-1H-benzo[d]imidazole-1-yl)ethan-1-one], the melting point is 109.6 to 112.4 °C.

Turning to `O=C(Cn1c(-c2ccc(F)cc2)nc2ccccc21)N1CCOCC1` [Compound 20, 2-(2-(4-Fluorophenyl)-1H-benzo[d]imidazole-1-yl)-1-morpholinoethan-1-one], the “pKi GABA-A” value in data set [1] is recorded as “loss of activity”.

Regarding `O=C(Cn1c(-c2ccc(F)cc2)nc2ccccc21)N1CCSCC1` [Compound 21, 2-(2-(4-Fluorophenyl)-1H-benzo[d]imidazole-1-yl)-1-thiomorpholinoethan-1-one], the melting point was in the range of 205.3 to 205.8 °C.

The molecule `O=C(Cn1c(-c2ccc(F)cc2)nc2ccccc21)Nc1ccccc1` [Compound 22, 2-(2-(4-Fluorophenyl)-1H-benzo[d]imidazole-1-yl)-N-phenylacetamide] showed a melting point of 236.7 to 239 °C.

As for `COc1ccccc1NC(=O)Cn1c(-c2ccc(F)cc2)nc2ccccc21` [Compound 24, 2-(2-(4-Fluorophenyl)-1H-benzo[d]imidazole-1-yl)-N-(2-methoxyphenyl)acetamide], the melting point lay within 206.9 to 207.2 °C. In addition, in data set [1], the “pKi GABA-A” value is “loss of affinity”.

On to `COc1cccc(NC(=O)Cn2c(-c3ccc(F)cc3)nc3ccccc32)c1` [Compound 25, 2-(2-(4-Fluorophenyl)-1H-benzo[d]imidazole-1-yl)-N-(3-methoxyphenyl)acetamide], for which the melting point lay within 149.1 to 149.9 °C. For the same molecule, the “pKi GABA-A” value in data set [1] is given as 5.02.

Take `COc1ccc(NC(=O)Cn2c(-c3ccc(F)cc3)nc3ccccc32)cc1` [Compound 26, 2-(2-(4-Fluorophenyl)-1H-benzo[d]imidazole-1-yl)-N-(4-methoxyphenyl)acetamide]: the melting point lay in the range of 255.1 to 255.7 °C. The “pKi GABA-A” value in data set [1] was “loss of affinity”.

In turn, `O=C(Cn1c(-c2ccc(F)cc2)nc2ccccc21)Nc1ccccc1F` [Compound 27, N-(2-Fluorophenyl)-2-(2-(4-fluorophenyl)-1H-benzo[d]imidazole-1-yl)acetamide] gave a melting point of 212.1 to 212.8 °C.

The molecule `O=C(Cn1c(-c2ccc(F)cc2)nc2ccccc21)Nc1cccc(F)c1` [Compound 28, N-(3-Fluorophenyl)-2-(2-(4-fluorophenyl)-1H-benzo[d]imidazole-1-yl)acetamide] returned a melting point of 182.3 to 182.7 °C.

Turning to `O=C(Cn1c(-c2ccc(F)cc2)nc2ccccc21)Nc1ccc(F)cc1` [Compound 29, N-(4-Fluorophenyl)-2-(2-(4-fluorophenyl)-1H-benzo[d]imidazole-1-yl)acetamide], the melting point lay in the range of 248 to 248.2 °C. The “pKi GABA-A” value in data set [1] is recorded as 5.74. Also, in data set [2], the “% of 10 μM GABA response” value is 112 ± 2,8%.

For the molecule `Cc1ccc(-c2nc3ccc(C)cn3c2CC(=O)N(C)C)cc1` [zolpidem, reference compound], the “pKi GABA-A” value in data set [1] was 7.39. The “% of 10 μM GABA response” value in data set [2] was 212 ± 8,5%.
